Test results taken from patent publication US5202315A, “Cephalosporin compounds” (Lucky, Ltd., priority 1989, dated 1993).
≈ marks a conversion by molar mass, not a printed value. Like-named read-outs stand apart in the source and are kept apart here.

Legend:
[1] = test system: Morganella morganii ATCC 8076h; experiment: Antibacterial activity, MIC; assay type: cell-based; conditions: ATCC8076H, agar two-fold dilution, 37° C., 20 hours
Method: (§1) Also, the in vitro antibacterial activity was determined by the by a two-fold dilution method as described below:
(§2) That is, the two-fold serial dilutions of the compound were made dispersed in Muller-Hinton agar medium. 2 μl of standard test strain which had the 10^7 CFU per ml was inoculated on the medium, and was incubated at 37° C. for 20 hours.

[2] = test system: Shigella flexneri ATCC 11836; experiment: Antibacterial activity, MIC; assay type: cell-based; conditions: ATCC11836, agar two-fold dilution, 37° C., 20 hours
Method: as §1, §2

[3] = test system: Salmonella typhimurium ATCC 14028; experiment: Antibacterial activity, MIC; assay type: cell-based; conditions: Salmonella enterica; ATCC 14028; agar two-fold dilution, 37° C., 20 hours; read-out: MIC
Method: as §1, §2

[4] = test system: Staphylococcus epidermidis ATCC 12228; experiment: Antibacterial activity, MIC; assay type: cell-based; conditions: ATCC12228, ATCC 12228, agar two-fold dilution, 37° C., 20 hours, read-out: MIC
Method: as §1, §2

[5] = test system: Escherichia coli ATCC 25922; experiment: Antibacterial activity, MIC; assay type: cell-based; conditions: ATCC25922, agar two-fold dilution, 37° C., 20 hours
Method: as §1, §2

[6] = test system: Enterobacter aerogenes ATCC 29751; experiment: Antibacterial activity, MIC; assay type: cell-based; conditions: Klebsiella aerogenes, ATCC29751; ATCC 29751; agar two-fold dilution, 37° C., 20 hours; read-out: MIC
Method: as §1, §2

[7] = test system: Shigella sonnei ATCC 11060; experiment: Antibacterial activity, MIC; assay type: cell-based; conditions: ATCC11060, ATCC 11060, agar two-fold dilution, 37° C., 20 hours, read-out: MIC
Method: as §1, §2

[8] = test system: Pseudomonas aeruginosa ATCC 25619; experiment: Antibacterial activity, MIC; assay type: cell-based; conditions: ATCC25619, ATCC 25619, agar two-fold dilution, 37° C., 20 hours, read-out: MIC
Method: as §1, §2

[9] = test system: Staphylococcus aureus ATCC 10537; experiment: Antibacterial activity, MIC; assay type: cell-based; conditions: ATCC10537, ATCC 10537, agar two-fold dilution, 37° C., 20 hours, read-out: MIC
Method: as §1, §2

[10] = test system: Proteus mirabilis ATCC 25933; experiment: Antibacterial activity, MIC; assay type: cell-based; conditions: ATCC25933, ATCC 25933, agar two-fold dilution, 37° C., 20 hours, read-out: MIC
Method: as §1, §2

[11] = test system: Klebsiella pneumoniae ATCC 10031; experiment: Antibacterial activity, MIC; assay type: cell-based; conditions: ATCC10031, ATCC 10031, agar two-fold dilution, 37° C., 20 hours, read-out: MIC
Method: as §1, §2

[12] = test system: Proteus vulgaris ATCC 6059; experiment: Antibacterial activity, MIC; assay type: cell-based; conditions: ATCC6059, ATCC 6059, agar two-fold dilution, 37° C., 20 hours, read-out: MIC
Method: as §1, §2

[13] = test system: Micrococcus luteus ATCC 9341; experiment: Antibacterial activity, MIC; assay type: cell-based; conditions: ATCC9341, ATCC 9341, agar two-fold dilution, 37° C., 20 hours, read-out: MIC
Method: as §1, §2

[14] = test system: Pseudomonas aeruginosa ATCC 10145; experiment: Antibacterial activity, MIC; assay type: cell-based; conditions: ATCC10145, ATCC 10145, agar two-fold dilution, 37° C., 20 hours, read-out: MIC
Method: as §1, §2

[15] = test system: Bacillus cereus ATCC 11778; experiment: Antibacterial activity, MIC; assay type: cell-based; conditions: ATCC11778, ATCC 11778, agar two-fold dilution, 37° C., 20 hours, read-out: MIC
Method: as §1, §2

[16] = test system: Staphylococcus aureus ATCC 6538p; experiment: Antibacterial activity, MIC; assay type: cell-based; conditions: ATCC6538P, ATCC 6538p, agar two-fold dilution, 37° C., 20 hours, read-out: MIC
Method: as §1, §2

[17] = test system: Enterobacter cloacae ATCC 27508; experiment: Antibacterial activity, MIC; assay type: cell-based; conditions: ATCC27508, ATCC 27508, agar two-fold dilution, 37° C., 20 hours, read-out: MIC
Method: as §1, §2

[18] = test system: Citrobacter freundii ATCC 8090; experiment: Antibacterial activity, MIC; assay type: cell-based; conditions: ATCC8090, ATCC 8090, agar two-fold dilution, 37° C., 20 hours, read-out: MIC
Method: as §1, §2

[19] = test system: Bacillus megaterium ATCC 9885; experiment: Antibacterial activity, MIC; assay type: cell-based; conditions: Priestia megaterium, ATCC9885; ATCC 9885; agar two-fold dilution, 37° C., 20 hours; read-out: MIC
Method: as §1, §2

[20] = test system: Pseudomonas aeruginosa ATCC 27853; experiment: Antibacterial activity, MIC; assay type: cell-based; conditions: ATCC27853, ATCC 27853, agar two-fold dilution, 37° C., 20 hours, read-out: MIC
Method: as §1, §2

[21] = test system: Acinetobacter calcoaceticus ATCC 15473; experiment: Antibacterial activity, MIC; assay type: cell-based; conditions: ATCC15473, ATCC 15473, agar two-fold dilution, 37° C., 20 hours, read-out: MIC
Method: as §1, §2

[22] = test system: Escherichia coli ATCC 10536; experiment: Antibacterial activity, MIC; assay type: cell-based; conditions: ATCC10536, agar two-fold dilution, 37° C., 20 hours
Method: as §1, §2

[23] = test system: Serratia marcescens ATCC 27117; experiment: Antibacterial activity, MIC; assay type: cell-based; conditions: ATCC27117, ATCC 27117, agar two-fold dilution, 37° C., 20 hours, read-out: MIC
Method: as §1, §2

[24] = test system: Providencia rettgeri ATCC 9250; experiment: Antibacterial activity, MIC; assay type: cell-based; conditions: ATCC9250, agar two-fold dilution, 37° C., 20 hours
Method: as §1, §2

[25] = test system: Streptococcus faecalis ATCC 29212; experiment: Antibacterial activity, MIC; assay type: cell-based; conditions: Enterococcus faecalis, ATCC29212; ATCC 29212; agar two-fold dilution, 37° C., 20 hours; read-out: MIC
Method: as §1, §2

[26] = In-vivo absorbency (plasma concentrations & pharmacokinetic parameters); design: species or system SD rat (male); conditions: plasma, SD male rat, iv 20 mg/kg, read-out: Plasma Conc.
[27] = as above; design: species or system SD rat (male); conditions: plasma, SD male rat, iv 20 mg/kg; for half-life: rat, iv, 20 mg/kg
Description: The blood samples from the femoral vein of the rats were taken every hour after administration, and analyzed by bio-assay(agar well method).
Tested animal: SD male Rat (220~340 g)

Row | Compound | MIC [1] [µg/mL] | MIC [2] [µg/mL] | MIC [3] [µg/mL] | MIC [4] [µg/mL] | MIC [5] [µg/mL] | MIC [6] [µg/mL] | MIC [7] [µg/mL] | MIC [8] [µg/mL] | MIC [9] [µg/mL] | MIC [10] [µg/mL] | MIC [11] [µg/mL] | MIC [12] [µg/mL] | MIC [13] [µg/mL] | MIC [14] [µg/mL] | MIC [15] [µg/mL] | MIC [16] [µg/mL] | MIC [17] [µg/mL] | MIC [18] [µg/mL] | MIC [20] [µg/mL] | MIC [21] [µg/mL] | further results
1 | CO/N=C(\C(=O)NC1C(=O)N2C(C(=O)[O-])=C(CSc3nc(N)cc(N)[n+]3C)CSC12)c1csc(N)n1 (centres unmarked) [Compound I-10] | ≤ 0.008 | 0.016 (≈ 0.029 µM) | 0.25 (≈ 0.453 µM) | 0.13 (≈ 0.236 µM) | 0.063 (≈ 0.114 µM) | 0.5 (≈ 0.906 µM) | 0.063 (≈ 0.114 µM) | 2 (≈ 3.63 µM) | 0.25 (≈ 0.453 µM) | 0.13 (≈ 0.236 µM) | 0.016 (≈ 0.029 µM) | 0.13 (≈ 0.236 µM) | 0.063 (≈ 0.114 µM) | 32 (≈ 58 µM) | 32 (≈ 58 µM) | 0.25 (≈ 0.453 µM) | ≤ 0.008 | 0.063 (≈ 0.114 µM) | 8 (≈ 14.5 µM) | 8 (≈ 14.5 µM) | MIC [19]: 0.25 µg/mL (≈ 0.453 µM); MIC [22]: 0.063 µg/mL (≈ 0.114 µM); MIC [23]: 0.063 µg/mL (≈ 0.114 µM); MIC [24]: ≤ 0.008 µg/mL
2 | CCc1c(N)nc(SCC2=C(C(=O)[O-])N3C(=O)C(NC(=O)/C(=N\OC(C)(C)C(=O)O)c4csc(N)n4)C3SC2)[n+](C)c1N (centres unmarked) [Compound I-31] | ≤ 0.008 | 0.063 (≈ 0.0967 µM) | 0.25 (≈ 0.384 µM) | 2 (≈ 3.07 µM) | 0.13 (≈ 0.199 µM) | 2 (≈ 3.07 µM) | 0.063 (≈ 0.0967 µM) | 1 (≈ 1.53 µM) | 4 (≈ 6.14 µM) | 0.031 (≈ 0.0476 µM) | 0.063 (≈ 0.0967 µM) | 0.063 (≈ 0.0967 µM) | 0.5 (≈ 0.767 µM) | 4 (≈ 6.14 µM) | 128 (≈ 196 µM) | 4 (≈ 6.14 µM) | 0.016 (≈ 0.0245 µM) | 0.13 (≈ 0.199 µM) | 2 (≈ 3.07 µM) | 8 (≈ 12.3 µM) | MIC [25]: > 128 µg/mL; MIC [22]: 0.063 µg/mL (≈ 0.0967 µM); MIC [23]: 0.25 µg/mL (≈ 0.384 µM); MIC [24]: ≤ 0.008 µg/mL; concentration at 0.5 min ([26]; 0.5 min): 208000 ng/mL; concentration at 2.5 min ([26]; 2.5 min): 85000 ng/mL; concentration at 5 min ([26]; 5 min): 62000 ng/mL; concentration at 10 min ([26]; 10 min): 45000 ng/mL; concentration at 20 min ([26]; 20 min): 30000 ng/mL; concentration at 40 min ([26]; 40 min): 14000 ng/mL; concentration at 1 h ([27]; 60 min, read-out: Plasma Conc.): 7700 ng/mL; concentration at 2 h ([27]; 120 min, read-out: Plasma Conc.): 1600 ng/mL; AUC ([27]; two compartment model): 30500 ng·h/mL; half-life ([27]; two compartment model, read-out: T1/2 (α)): 6 min; half-life ([27]; two compartment model, read-out: T1/2 (β)): 27 min
